Results reported in patent US11530244B2, “Cyclic polypeptides for PCSK9 inhibition” (priority 2018, dated 2022).
Starred links: 1 amine or outer side, 2 acyl side, 3 side chain; linkers in the order of their positions; H or OH if unused. Positions of bridges follow the written chain, without caps; N, C: chain ends. Non-standard residues stand in square brackets, D forms with d. Residues, ends and D or L forms follow the SMILES beside them. Triazole bridges read from a SMILES are 1,4-linked. Phe(3-CH2NH2) = O=C([C@H](Cc1cccc(CN[*:3])c1)N[*:1])[*:2]; Pro(cis-4-Ph) = O=C(O)[C@@H]1C[C@H](c2ccccc2)CN1; Phe(4-COOH) = N[C@@H](Cc1ccc(C(=O)O)cc1)C(=O)O; Trp(5-F) = N[C@@H](Cc1c[nH]c2ccc(F)cc12)C(=O)O; Phe(4-CH2NH2) = NCc1ccc(C[C@H](N)C(=O)O)cc1; X4 = O=C(CCSCc1cccc(CSCCN[*:1])c1)[*:2]; Orn(N3) = [N-]=[N+]=NCCC[C@H](N)C(=O)O; mXylylene = c1cc(C[*:1])cc(C[*:2])c1; d(aThr) = C[C@@H](O)[C@@H](N)C(=O)O; Adipoyl = O=C(CCCCC(=O)[*:2])[*:1]; X34 = O=C(CCC1CCN([*:1])CC1)[*:2]; X35 = COc1cc(C[*:1])cc(C[*:2])c1; aThr = C[C@H](O)[C@H](N)C(=O)O; hLys = NCCCCC[C@H](N)C(=O)O; αMeP = C[C@@]1(C(=O)O)CCCN1; dPra = C#CC[C@@H](N)C(=O)O; Mpa = O=C(O)CCS

Assays:
[1] = molecular target: human PCSK9 / human LDLR EGFa domain interaction (Homo sapiens (Human), UniProt Q8NBP7); assay: TR-FRET assay of inhibition of the PCSK9-LDLR protein-protein interaction; format: binding; conditions: TR-FRET, 20 nM human PCSK9, 20 nM human LDLR EGFa domain, 2 hours room temperature; read-out: IC50
Summary of the method: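 Inhibition of PCSK9 binding to the LDLR EGFa domain, each protein at 20 nM, detected by TR-FRET using streptavidin and anti-His donor/acceptor labels (5 nM). Two-hour room-temperature incubation in calcium-containing HEPES buffer.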

PCSK9 = PCSK9 (Homo sapiens (Human), UniProt Q8NBP7); assay: PCSK9 Alexa FRET Standard assay (displacement of AlexaFluor647 tagged cyclic peptide Reagent A); format: binding; conditions: PCSK9 Alexa FRET Standard assay, 0.5 nM PCSK9, 20 nM AF cyclic peptide Reagent A; read-out: IC50
Summary of the method: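 TR-FRET displacement: 0.5 nM biotinylated PCSK9 with 1.25 nM Strep-Eu and 20 nM AlexaFluor-tagged cyclic peptide (final) in 50 mM HEPES pH 7.4, 0.15 M NaCl, 5 mM CaCl2, 0.01% BSA, 0.01% P20, ≥2 h at room temperature. IC50 from sigmoidal fit, converted to Ki via peptide KD; falling Eu counts flagged false positives.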

Chain of human PCSK9 / human LDLR EGFa domain interaction (Q8NBP7 153-692): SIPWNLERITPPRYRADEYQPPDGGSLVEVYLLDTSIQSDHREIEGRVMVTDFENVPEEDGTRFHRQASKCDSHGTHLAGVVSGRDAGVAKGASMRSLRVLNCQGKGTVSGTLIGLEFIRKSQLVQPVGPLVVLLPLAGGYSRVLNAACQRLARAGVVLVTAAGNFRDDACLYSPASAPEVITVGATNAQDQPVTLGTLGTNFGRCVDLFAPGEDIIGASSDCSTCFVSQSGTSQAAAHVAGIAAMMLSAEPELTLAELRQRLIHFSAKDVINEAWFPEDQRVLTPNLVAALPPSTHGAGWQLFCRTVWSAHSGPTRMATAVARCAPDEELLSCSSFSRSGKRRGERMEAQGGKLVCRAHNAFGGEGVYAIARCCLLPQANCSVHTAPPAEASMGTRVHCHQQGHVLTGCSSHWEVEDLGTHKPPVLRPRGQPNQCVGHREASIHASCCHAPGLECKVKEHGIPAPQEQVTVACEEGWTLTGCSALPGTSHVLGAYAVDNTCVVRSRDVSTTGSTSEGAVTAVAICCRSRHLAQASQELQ
Chain of human PCSK9 / human LDLR EGFa domain interaction (Q8NBP7 31-152 partner): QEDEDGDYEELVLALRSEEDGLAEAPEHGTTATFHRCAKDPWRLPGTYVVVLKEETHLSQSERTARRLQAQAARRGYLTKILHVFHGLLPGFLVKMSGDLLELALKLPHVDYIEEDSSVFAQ
Chain of PCSK9 (Q8NBP7 153-692): as the sequence (Q8NBP7 153-692) above

COc1ccc(C[C@@H]2NC(=O)[C@H](Cc3cnc[nH]3)NC(=O)[C@H](CC(=O)O)NC(=O)[C@H](Cc3c[nH]c4ccc(F)cc34)NC(=O)[C@H](Cc3c[nH]c4ccc(F)cc34)NC(=O)[C@@H](C)NC(=O)[C@H](CCCCN)NC(=O)[C@@H](NC(C)=O)CCc3cn(nn3)-c3ccc(cc3)C[C@@H](C(N)=O)NC(=O)[C@]3(C)CCCN3C2=O)cc1 [Compound 371]
IC50 [1]: 0.0001 to 0.1 µM
IC50 (PCSK9): 0.00011 to 0.1 µM

COc1ccc(C[C@@H]2NC(=O)[C@H](Cc3cnc[nH]3)NC(=O)[C@H](CC(=O)O)NC(=O)[C@H](Cc3c[nH]c4ccc(F)cc34)NC(=O)[C@H](Cc3c[nH]c4ccc(F)cc34)NC(=O)[C@@H](C)NC(=O)[C@H](CCCCN)NC(=O)[C@@H](NC(C)=O)CCCCCNC(=O)c3ccc(cc3)C[C@@H](C(N)=O)NC(=O)[C@]3(C)CCCN3C2=O)cc1 [Compound 393] (Ac-[hLys]K[dA][Trp(5-F)][Trp(5-F)]DHY(Me)[αMeP][Phe(4-COOH)]-NH2; lactam 1-10)
IC50 [1]: 0.0001 to 0.1 µM
IC50 (PCSK9): 0.1 to 1 µM

C[C@@H]1NC(=O)CCCCC(=O)NCc2ccc(cc2)C[C@@H](C(N)=O)NC(=O)[C@]2(C)CCCN2C(=O)[C@H](Cc2ccc(O)cc2)NC(=O)[C@H](Cc2cnc[nH]2)NC(=O)[C@H](CC(=O)O)NC(=O)[C@H](Cc2c[nH]c3ccc(F)cc23)NC(=O)[C@H](Cc2c[nH]c3ccc(F)cc23)NC(=O)CNC1=O [Compound 370] (AG[Trp(5-F)][Trp(5-F)]DHY[αMeP][Phe(4-CH2NH2)]-NH2; linker N-9 via Adipoyl)
IC50 [1]: 0.0001 to 0.1 µM
IC50 (PCSK9): 0.1 to 1 µM

C[C@H](O)[C@@H]1NC(=O)[C@@H]2CCCN2C(=O)[C@H](Cc2c[nH]c3ccc(F)cc23)NC(=O)[C@H](Cc2c[nH]c3ccc(F)cc23)NC(=O)CNC(=O)[C@H](CCCCN)NC(=O)CCSCc2cccc(c2)CSC[C@@H](C(N)=O)NC(=O)[C@]2(C)CCCN2C(=O)[C@H](Cc2ccc(O)cc2)NC1=O [Compound 050] ([Mpa]KG[Trp(5-F)][Trp(5-F)]P[aThr]Y[αMeP]C-NH2; linker 1-10 via mXylylene)
IC50 [1]: 21 to 50 µM
IC50 (PCSK9): 21 to 50 µM

NCCCC[C@@H]1NC(=O)CCSCc2cccc(c2)CSC[C@@H](C(N)=O)NC(=O)[C@@H]2C[C@H](c3ccccc3)CN2C(=O)[C@H](Cc2ccc(O)cc2)NC(=O)[C@H](Cc2cnc[nH]2)NC(=O)[C@H](CC(=O)O)NC(=O)[C@H](Cc2c[nH]c3ccc(F)cc23)NC(=O)[C@H](Cc2c[nH]c3ccc(F)cc23)NC(=O)CNC1=O [Compound 329] ([Mpa]KG[Trp(5-F)][Trp(5-F)]DHY[Pro(cis-4-Ph)]C-NH2; linker 1-10 via mXylylene)
IC50 [1]: 0.1 to 1 µM
IC50 (PCSK9): 0.1 to 1 µM

COc1ccc(C[C@@H]2NC(=O)[C@H](Cc3cnc[nH]3)NC(=O)[C@H](CC(=O)O)NC(=O)[C@H](Cc3c[nH]c4ccc(F)cc34)NC(=O)[C@H](Cc3c[nH]c4ccc(F)cc34)NC(=O)[C@H](C)NC(=O)CCC3CCN(CC3)C(=O)[C@H](CC(N)=O)NC(=O)[C@]3(C)CCCN3C2=O)cc1 [Compound 404] (cyclo(A[Trp(5-F)][Trp(5-F)]DHY(Me)[αMeP]N[X34]))
IC50 [1]: 0.1 to 1 µM
IC50 (PCSK9): 1 to 12.1 µM

COc1ccc(C[C@@H]2NC(=O)[C@H]([C@@H](C)O)NC(=O)[C@@H]3CCCN3C(=O)[C@H](Cc3c[nH]c4ccc(F)cc34)NC(=O)[C@H](Cc3c[nH]c4ccc(F)cc34)NC(=O)[C@@H](C)NC(=O)[C@H](CCCCN)NC(=O)CCSCc3cc(cc(OC)c3)CSC[C@@H](C(N)=O)NC(=O)[C@]3(C)CCCN3C2=O)cc1 [Compound 063] ([Mpa]K[dA][Trp(5-F)][Trp(5-F)]PTY(Me)[αMeP]C-NH2; linker 1-10 via X35)
IC50 [1]: 1 to 12.1 µM
IC50 (PCSK9): 21 to 50 µM

COc1ccc(C[C@@H]2NC(=O)[C@H](Cc3cnc[nH]3)NC(=O)[C@H](CC(=O)O)NC(=O)[C@H](Cc3c[nH]c4ccc(F)cc34)NC(=O)[C@H](Cc3c[nH]c4ccc(F)cc34)NC(=O)[C@@H](C)NC(=O)[C@H](CCCCN)NC(=O)[C@@H](NC(C)=O)CCCc3cn(nn3)-c3ccc(cc3)C[C@@H](C(N)=O)NC(=O)[C@]3(C)CCCN3C2=O)cc1 [Compound 353]
IC50 [1]: 21 to 50 µM
IC50 (PCSK9): 21 to 50 µM

CC(=O)N[C@@H]1Cc2cn(nn2)CCC[C@@H](C(N)=O)NC(=O)[C@]2(C)CCCN2C(=O)[C@H](Cc2ccc(O)cc2)NC(=O)[C@H](Cc2cnc[nH]2)NC(=O)[C@H](CC(=O)O)NC(=O)[C@H](Cc2c[nH]c3ccc(F)cc23)NC(=O)[C@H](Cc2c[nH]c3ccc(F)cc23)NC(=O)CNC1=O [Compound 335] (Ac-[dPra]G[Trp(5-F)][Trp(5-F)]DHY[αMeP][Orn(N3)]-NH2; triazole 1-9)
IC50 [1]: 1 to 12.1 µM
IC50 (PCSK9): 1 to 12.1 µM

COc1ccc(C[C@@H]2NC(=O)[C@@H]([C@@H](C)O)NC(=O)[C@H](CC(=O)O)NC(=O)[C@H](Cc3c[nH]c4ccc(F)cc34)NC(=O)[C@H](Cc3cccc(CN)c3)NC(=O)[C@@H](C)NC(=O)[C@H](C)NC(=O)CCSCc3cccc(c3)CSCCNC(=O)[C@]3(C)CCCN3C2=O)cc1 [Compound 384] (cyclo(A[dA][Phe(3-CH2NH2)][Trp(5-F)]D[d(aThr)]Y(Me)[αMeP][X4]))
IC50 [1]: 21 to 50 µM
IC50 (PCSK9): 21 to 50 µM
